Data as given in paper PMC3314694, “Small Molecule Antagonists of the Wnt/Beta-Catenin Signaling Pathway Target Breast Tumor-Initiating Cells in a Her2/Neu Mouse Model of Breast Cancer” (PLoS ONE, 2012).

Assays:
[1] = tested on: tumorsphere-derived cells; test: Sphere forming assay, tumorsphere-derived cells; type: cell-based, mouse
From the text: (§1) To determine whether Wnt/β-catenin signaling was required for BTIC and mammary epithelial stem and progenitor cell function in vitro, we examined the effect of agonists and antagonists of Wnt/β-catenin signaling on sphere formation, which when performed under appropriate conditions is thought to be an attribute of stem/progenitor cells and TICs, [38], [39], [40]. We seeded dispersed cells dissociated from mammospheres and tumorspheres into media containing either Dkk1 or Wnt3a at concentrations previously shown to be sufficient to inhibit or activate the Wnt/β-catenin signaling pathway, respectively, [42]. Dkk1 is a secreted protein inhibitor [43], and Wnt3A is a stimulatory ligand of Wnt/β-catenin signaling. […] We used the small molecule BIO to inhibit GSKβ, a negative regulator of Wnt/β-catenin signaling.
(§2) We similarly tested pharmacological agents, which target Wnt/β-catenin signaling (PKF118–310, PKF115–584, CGP049090), for their affect on sphere formation. These inhibitors are specific antagonists of Wnt/β-catenin signaling that interrupt the […] step in pathway activation, namely the interaction between β-catenin and Tcf/Lef transcription factors. We seeded freshly isolated primary tumor cells and primary mammary epithelial cells, as well as mammosphere- and tumorsphere-derived cells into medium containing various concentrations of the inhibitors.
(§3) The #3 and #4 mammary glands from virgin female FVB/N mice (6–8 weeks old) and mammary tumors were isolated as described previously, [56]. Mammospheres and tumorspheres were established from the bulk primary mammary epithelial and tumor cell population respectively as described previously. Serial passage of the mammospheres and tumorspheres was accomplished by mechanically dissociated the cells from spheres using titruation and reseeding the dispersed cells into fresh medium. Passage of the spheres was limited to 3–5 serial passages before the cells were harvested and RNA prepared. To induce a differentiation program in mammospheres in vitro, intact mammospheres were collected by centrifugation, the spheres were dissociated and the dispersed cells were plated at a density of 150,000 cells/ml on rat-tail collagen (Roche, Basel, Switzerland) coated 60 mm Petri dishes, [59]. The cells were incubated for a week before they were harvested and used to prepare cellular RNA for analyses.
(§4) Sphere and colony forming assays were completed as previously described. Dkk1 and Wnt3A were obtained from RnDSystems (Minneapolis, Minnesota). PKF118–310, PKF115–584 and CGP049090 were a gift from Novartis (Basel, Switzerland).
(§5) The 50% inhibitory concentration (IC50) of compounds was calculated using GraphPad Prism5 software. X-axis values were X = Log(X) transformed and then fit with a dose-response curve. The DMSO vehicle control was included to aid IC50 calculation and was assigned a 1 nM concentration of the tested compound.

primary tumor cells [2] = test: Secondary sphere-forming assay (self-renewal), primary tumor cells; type: cell-based, mouse; conditions: 1 µM during 4-day primary sphere assay; secondary spheres in medium lacking inhibitor
From the text: (§6) To learn whether the inhibitory compounds affected the self-renewal of sphere-forming cells, we investigated the capacity of cells exposed to the compounds to serially form spheres. In short, dispersed primary mammary epithelial cells and primary tumor cells were exposed to PKF118–310 during a 4-day primary sphere-forming assay. The spheres that formed were counted, the cells dissociated from the spheres and the dispersed cells plated to form secondary spheres in fresh medium lacking the inhibitors.

BTICs in tumors = test: Secondary transplant of tumor cells harvested from treated mice; type: in vivo; conditions: 10,000 cells/mouse from treated mice
From the text: The principal objective of our experiments was to learn whether inhibition of Wnt/β-catenin signaling targeted BTICs in tumors. […] We reasoned that if PKF118–310 selectively targeted BTICs in vivo, viable cells isolated from PKF118–310 treated tumor-bearng hosts would engraft and elicit tumor growth less efficiently relative to their vehicle-treated counterparts. To this end, we transplanted tumor cells by injecting them sub-cutaneously (n = 20, PKF118–310-treated; n = 20, vehicle-treated) between the shoulders of syngeneic mice (10,000 cells/mouse) and measured tumor latency in the PKF118–310-treated and vehicle-treated transplant cohorts. […]
Freshly isolated primary tumor (100,000) cells were suspended in 50% Matrigel (BD, Franklin Lakes, New Jersey), 45% phosphate buffered saline pH7.4 (PBS) and 5% fetal bovine serum (FBS) [Invitrogen, Carlsbad, California], and the cells were injected subcutaneously between the shoulders into syngeneic 6–8 week-old female mice (FVB/N strain). Mice were monitored by palpation weekly for the occurrence of tumors. […] Tumor volume was measured twice weekly. […] Viable tumor cells (assessed by TrypanBlue staining) from vehicle- and compound-treated mice were isolated as described above and 10,000 cells were transplanted subcutaneously into syngeneic mice (n = 20, treated; n = 20, untreated).

primary tumor cells [3] = test: Sphere forming assay, primary tumor cells; type: cell-based, mouse; conditions: for IC50: primary tumor cells; for selectivity (IC50 MMS/IC50 TMS) for primary tumor cells over primary mammary epithelial cells: sphere forming assays
From the text: as §2, §3, §4, §5

[4] = tested on: primary mammary epithelial cells; test: Sphere forming assay, primary mammary epithelial cells; type: cell-based, mouse
From the text: as §2
The #3 and #4 mammary glands from virgin female FVB/N mice (6–8 weeks old) and mammary tumors were isolated as described previously, [56]. Mammospheres and tumorspheres were established from the bulk primary mammary epithelial and tumor cell population respectively as described previously. Serial passage of the mammospheres and tumorspheres was accomplished by mechanically dissociated the cells from spheres using titruation and reseeding the dispersed cells into fresh medium. Passage of the spheres was limited to 3–5 serial passages before the cells were harvested and RNA prepared. […]

[5] = tested on: pre-established breast tumors; test: In vivo compound administration to tumor-bearing mice; parameters: species or system mouse
From the text: To determine whether PKF118–310 affected the growth of pre-established breast tumors and reduced BTIC frequency in vivo, we transplanted primary breast tumor cells into syngeneic mice and treated these hosts with PKF118–310 after the tumors had reached a volume of ∼1 cm^3. […] After treatment ceased the tumors in mice administered the vehicle were ∼3 fold larger than those in PKF118–310-treated mice (Fig. 4B, *p<0.05).
To uncover potential mechanisms whereby the compound halted tumor growth, we prepared sections from the tumors of both cohorts and stained them with Hematoxylin and Eosin (H&E). […] In some cases the cell-free areas contained material, characteristic of milk protein secretions. […] We also examined whether inhibition of tumor growth was accomplished by a reduction in cell proliferation and/or induction of apoptosis. We stained tumor sections for markers of proliferation (Ki67) and apoptosis (cleaved caspase-3 and TUNEL). We observed a significant decrease in the frequency of Ki67 positive tumor cell nuclei in the PKF118–310 treated tumor-bearing mice compared to their vehicle-treated counterparts (Fig. 4D&E). […] Tumors from PKF118–310 treated mice comprised approximately 3–4-fold fewer Ki67-positive cells than tumors from vehicle-treated mice. We similarly simultaneously stained the tumor sections with antibodies to a luminal lineage marker (CK8) and with those to each of two myoepithelial lineage markers (CK14 and alpha-smooth muscle actin [alpha-SMA). The vast majority of the cells in sections prepared from tumors of the vehicle-treated mice expressed only the luminal lineage marker in keeping with previous findings (data not shown). Tumor sections prepared from tumors of the mice administered PKF118–310 also only expressed the luminal lineage marker.
To learn whether administration of PKF118–310 to tumor-bearing mice inhibited Wnt/β-catenin signaling in tumors, we measured the abundance of Wnt/β-catenin target gene transcripts in the tumor cells.
Freshly isolated primary tumor (100,000) cells were suspended in 50% Matrigel (BD, Franklin Lakes, New Jersey), 45% phosphate buffered saline pH7.4 (PBS) and 5% fetal bovine serum (FBS) [Invitrogen, Carlsbad, California], and the cells were injected subcutaneously between the shoulders into syngeneic 6–8 week-old female mice (FVB/N strain). Mice were monitored by palpation weekly for the occurrence of tumors. When tumors reached roughly 1 cm^3, the mice were administered either the vehicle (0.1% DMSO) or PKF118–310 (0.85 mg/kg) dissolved in 0.1% DMSO by intra-tumoral injection for 5 consecutive days followed by a 2-day rest period before compound administration was repeated once. Tumor volume was measured twice weekly. At the end of the 12-day treatment cycle the mice were sacrificed and their tumors harvested for analysis. […] Viable tumor cells (assessed by TrypanBlue staining) from vehicle- and compound-treated mice were isolated as described above and 10,000 cells were transplanted subcutaneously into syngeneic mice (n = 20, treated; n = 20, untreated).
Paraformaldehyde fixed tumor fragments were embedded in paraffin, sectioned and stained with H&E. The tumor sections were de-paraffinized and rehydrated in ethanol (100-70% gradient) before immunofluorescent analysis. Antigen retrieval was performed in Antigen Unmasking Solution (Vector, Burlingame, California). Slides were blocked with 3% normal goat serum (Dako, Denmark) and incubated with primary antibodies for 2 hours at room temperature (Ki67, 1∶200 [ABCAM, Cambridge, Massachusetts]. Secondary antibodies (Invitrogen) were used at a 1∶200 dilution for 1 hour at room temperature.

[6] = tested on: mammosphere-derived cells; test: Sphere forming assay, mammosphere-derived cells; type: cell-based, mouse
From the text: as §1, §2, §3, §4, §5

[7] = tested on: primary mammary epithelial cells; test: Secondary sphere-forming assay (self-renewal), primary mammary epithelial cells; type: cell-based, mouse; conditions: 1 µM during 4-day primary sphere assay; secondary spheres in medium lacking inhibitor
From the text: as §6

[8] = tested on: primary tumor cells (BTIC); test: Ex vivo treatment of primary tumor cells and transplant into syngeneic mice; type: in vivo, mouse
Method: We incubated freshly isolated primary tumor cells under sphere forming conditions in presence of vehicle (DMSO) or PKF118–310 (1 µM or 2.5 µM concentrations). After 4 days the spheres were collected, dissociated and equal numbers (5,000) of viable PKF118–310- and vehicle-treated cells were injected sub-cutaneously into the syngeneic mice. Upon endpoint, when the tumor in any individual mouse reached 10% of its weight (∼6 weeks) all the animals were sacrificed and the tumors harvested.
as §4

[9] = 0.85 mg/kg, qRT-PCR, versus vehicle

Row | Molecule | IC50 [1] [nM] | IC50 (primary tumor cells [3]) [nM] | selectivity (IC50 MMS/IC50 TMS) for primary tumor cells over primary mammary epithelial cells (primary tumor cells [3]) | IC50 [4] [nM] | IC50 [6] [nM] | effect on sphere formation [1] | effect on sphere formation [6] | further results
1 | Cn1ncnc2c(=O)n(C)c(=O)nc1-2 [PKF118–310] | 940 | 580 | 2–3 fold | 1540 | 540 |  |  | reduction of capacity to form secondary spheres relative to vehicle (primary tumor cells [2]): ~10 fold; mice remaining tumor free (BTICs in tumors; 12 week follow-up): 85%; mice forming tumor grafts (BTICs in tumors; vehicle 20/20): 3 of 20; effect on tumor growth ([5]; 0.85 mg/kg intra-tumoral, 12 days (5 on, 2 off, 5 on)): inhibited tumor growth; tumor regression during treatment ([5]; 0.85 mg/kg, 12 days): did not induce significant tumor regression; abundance of axin2 transcripts in tumors [5, 9]: significantly lower; abundance of cyclin D1 transcripts in tumors [5, 9]: significantly lower; tumor volume after treatment, vehicle larger than treated ([5]; 0.85 mg/kg, t = 12 days): ~3 fold; Ki67-positive cells, fewer than in vehicle tumors ([5]; 0.85 mg/kg, tumor sections): 3–4 fold; cleaved caspase-3 or TUNEL staining (apoptosis) in tumors ([5]; 0.85 mg/kg, tumor sections): did not observe any positive staining; secondary mammosphere formation relative to vehicle [7]: at the same frequency as the vehicle-treated mammary epithelial cells; tumor latency versus vehicle-treated cells ([8]; cells incubated with 1 µM for 4 days): longer latency; tumor size at endpoint, smaller than vehicle-treated ([8]; cells incubated with 1 µM for 4 days, 5,000 viable cells s.c.): approximately 50%; tumor mass at endpoint ([8]; cells incubated with 1 µM for 4 days, 5,000 viable cells s.c., ∼6 weeks, control 0.49 g): 0.26 g; tumor initiation after transplant ([8]; cells incubated with 2.5 µM for 4 days, 5,000 viable cells s.c., ∼6 weeks): failed to initiate tumor growth in any of the host mice
2 | O=C1Nc2cc(Br)ccc2/C1=C1/Nc2ccccc2/C1=N\O [BIO] |  |  |  |  |  | stimulated sphere formation | stimulated sphere formation | 
3 | PKF115–584 | 1340 | 310 | 6–7 fold | 2050 | 1390 |  |  | 
4 | Dkk1: secreted protein inhibitor of Wnt/β-catenin signaling, from RnDSystems (protein, UniProt O94907 32-266, looked up) Dickkopf-related protein 1: TLNSVLNSNAIKNLPPPLGGAAGHPGSAVSAAPGILYPGGNKYQTIDNYQPYPCAEDEECGTDEYCASPTRGGDAGVQICLACRKRRKRCMRHAMCCPGNYCKNGICVSSDQNHFRGEIEETITESFGNDHSTLDGYSRRTTLSSKMYHTKGQEGSVCLRSSDCASGLCCARHFWSKICKPVLKEGQVCTKHRRKGSHGLEIFQRCYCGEGLSCRIQKDHHQASNSSRLHTCQRH |  |  |  |  |  | reduced sphere formation | reduced sphere formation | 
5 | Wnt3A: stimulatory ligand of Wnt/β-catenin signaling, from RnDSystems (protein, UniProt P56704 19-352, looked up) Protein Wnt-3a: SYPIWWSLAVGPQYSSLGSQPILCASIPGLVPKQLRFCRNYVEIMPSVAEGIKIGIQECQHQFRGRRWNCTTVHDSLAIFGPVLDKATRESAFVHAIASAGVAFAVTRSCAEGTAAICGCSSRHQGSPGKGWKWGGCSEDIEFGGMVSREFADARENRPDARSAMNRHNNEAGRQAIASHMHLKCKCHGLSGSCEVKTCWWSQPDFRAIGDFLKDKYDSASEMVVEKHRESRGWVETLRPRYTYFKVPTERDLVYYEASPNFCEPNPETGSFGTRDRTCNVSSHGIDGCDLLCCGRGHNARAERRREKCRCVFHWCCYVSCQECTRVYDVHTCK |  |  |  |  |  | stimulated sphere formation | stimulated sphere formation | 
